Paper PMC3877896, “New Dimeric Members of the Phomoxanthone Family: Phomolactonexanthones A, B and Deacetylphomoxanthone C Isolated from the Fungus Phomopsis sp” (Marine Drugs, 2013)

Columns and labels:
[1] = system: four human cancer cell lines (MDA-MB-435, HCT-116, Calu-3, Huh7); assay: MTT cytotoxicity assay, tested cancer cell lines taken together; format: cell-based; settings: for cytotoxic activities against tested cancer cell lines (in words): MDA-MB-435, HCT-116, Calu-3, Huh7
Procedure: (§1) These phomoxanthone compounds (1–8) were evaluated for their cyctotoxic activity in vitro against four human cancer cell lines including human breast MDA-MB-435, human colon HCT-116, human lung Calu-3 and human liver Huh7, compared with their effects on the immortalized human breast epithelial cell line MCF-10A by MTT assay using epirubicin (an anticancer drug used widely in the clinic) as positive control.
(§2) MDA-MB-435, HCT-116, Calu-3 and Huh7 were cultured in Dulbecco’s modification Eagle’s medium (DMEM, Invitrogen, Carlsbad, CA, USA) supplemented with 10% fetal bovine serum (FBS, Hyclone, Logan, UT, USA), 2 mM L-glutamine, 100 μg/mL streptomycin and 100 U/mL penicillin (Invitrogen, Carlsbad, CA, USA). MCF-10A cells were cultured in keratinocyte serum free medium (KSFM) supplemented with 0.1–0.2 ng/mL human recombinant epidermal growth factor and 20–30 μg/mL bovine pituitary extract (Invitrogen, Carlsbad, CA, USA). The cells were incubated at 37 °C in a humidified atmosphere with 5% CO2.
(§3) Cells were harvested during logarithmic growth phase and seeded in 96-well plates at a density of 1 × 10^4 cells/mL, and cultured at 37 °C in a humidified incubator (5% CO2) for 24 h, followed by exposure to various concentrations of compounds tested for 48 h. Subsequently 20 μL of MTT (Genview, Houston, TX, USA) solution (5 mg/mL) was added to each well and mixed, the cells were then incubated for an additional 4 h. Culture supernatant was removed using the micropipette, 150 μL of DMSO (Sangon Biotech, Shanghai, China) was added to each well to fully dissolve the MTT-formazan crystals. Cell growth inhibition was determined by measuring the absorbance (Abs) at λ = 570 nm using a microplate reader and calculated according to the following equation: Growth inhibition = (1 − OD of treated cells/OD of control cells) × 100%
(§4) The half maximal inhibitory concentrations (IC50) were obtained from linear regression analysis of the concentration-response curves plotted for each tested compound.

[2] = system: Huh7 human liver cancer cell line; assay: MTT cytotoxicity assay, Huh7; format: cell-based; settings: Huh-7, 48 h exposure, mean ± SD of three independent experiments
Procedure: as §1, §2, §3, §4

[3] = system: Calu-3 human lung cancer cell line; assay: MTT cytotoxicity assay, Calu-3; format: cell-based; settings: mean ± SD of three independent experiments
Procedure: as §1, §2, §3, §4

[4] = system: MCF-10A immortalized human breast epithelial cell line; assay: MTT cytotoxicity assay, MCF-10A; format: cell-based; settings: MCF-10A
Procedure: as §1, §2, §3, §4

[5] = MTT cytotoxicity assay, MCF-10A; format: cell-based, human; settings: human, MCF-10A cells, 48 h exposure, mean ± SD of three independent experiments
Procedure: as §1, §2, §3, §4

[6] = system: HCT-116 human colon cancer cell line; assay: MTT cytotoxicity assay, HCT-116; format: cell-based; settings: mean ± SD of three independent experiments
Procedure: as §1, §2, §3, §4

[7] = system: MDA-MB-435 human breast cancer cell line; assay: MTT cytotoxicity assay, MDA-MB-435; format: cell-based; settings: mean ± SD of three independent experiments
Procedure: as §1, §2, §3, §4

[8] = system: A549 (lung tumor); set-up: method as in PMID 11520215; settings: cited from earlier work
[9] = system: HCT-116 (colon tumor); set-up: method as in PMID 11520215; settings: cited from earlier work
[10] = Homo sapiens, Calu-3, 48 h, 48 h exposure
[11] = Homo sapiens, HCT-116, 48 h, 48 h exposure
[12] = Homo sapiens, MDA-MB-435, 48 h, 48 h exposure
[13] = Homo sapiens, Calu-3, 48 h exposure
[14] = Homo sapiens, HCT-116, 48 h exposure

| SMILES | cytotoxic activities against tested cancer cell lines (in words) ([1]; MTT) | IC50 [2] | IC50 [3, 10] | cytotoxic effect on the immortalized human breast epithelial cell line (in words) [4] | IC50 at 48 h [5] | IC50 [6, 11] | IC50 [7, 12] | IC50 [3, 13] | melting point | IC50 [6, 14] | IC50 ([7]; Homo sapiens, MDA-MB-435, 48 h exposure) | cytotoxic activity against A549 compared with dicerandrol B (in words) [8] | IC50 ([1]; Homo sapiens, summary statement of the abstract, cell lines not specified, read-out: IC50 against tested cancer cell lines) | cytotoxic activity against HCT-116 compared with dicerandrol B (in words) [9] | IC50 ([7]; 48 h exposure) | anticancer activities against MDA-MB-435, HCT-116 and Calu-3 (in words) ([1]; MTT, MDA-MB-435, HCT-116, Calu-3) | IC50 ([3]; 48 h exposure) | IC50 ([6]; 48 h exposure) |
| --- | --- | --- | --- | --- | --- | --- | --- | --- | --- | --- | --- | --- | --- | --- | --- | --- | --- | --- |
| CC(=O)OCC1(C2OC(=O)CC2C)CC(=O)c2c(O)ccc(-c3ccc4c(c3O)C(=O)C3=C(O)CC(C)C(OC(C)=O)C3(CO)O4)c2O1 (stereo not drawn) [Compound 1, Phomolactonexanthone A] | weak/no cytotoxic activities | > 50 µM | 43.5 ± 2.51 µM | no cytotoxic effect | > 50 µM | > 50 µM | > 50 µM | – | – | – | – | – | – | – | – | – | – | – |
| CC(=O)OCC1(C2OC(=O)CC2C)CC(=O)c2c(ccc(-c3ccc4c(c3O)C(=O)C3=C(O)CC(C)C(OC(C)=O)C3(CO)O4)c2O)O1 (stereo not drawn) [Compound 2, Phomolactonexanthone B] | weak/no cytotoxic activities | > 50 µM | – | no cytotoxic effect | > 50 µM | – | – | > 50 µM | 101.6 to 102.4 °C | > 50 µM | > 50 µM | – | – | – | – | – | – | – |
| CC(=O)O[C@@H]1[C@H](C)CC(O)=C2C(=O)c3c(O)ccc(-c4ccc(O)c5c4O[C@@]4(CO)C(=C(O)C[C@@H](C)[C@H]4OC(C)=O)C5=O)c3O[C@@]21CO [Compound 3, Deacetylphomoxanthone C] | weak/no cytotoxic activities | > 50 µM | 43.4 ± 2.09 µM | no cytotoxic effect | > 50 µM | 44.1 ± 3.29 µM | > 50 µM | – | – | – | – | – | – | – | – | – | – | – |
| CC(=O)O[C@@H]1[C@H](C)CC(O)=C2C(=O)c3c(ccc(-c4ccc5c(c4O)C(=O)C4=C(O)C[C@@H](C)[C@@H](OC(C)=O)[C@@]4(CO)O5)c3O)O[C@@]21CO [Compound 4, dicerandrol A] | significant cytotoxic activities | 4.19 ± 0.08 µM | 1.76 ± 0.02 µM | displayed cytotoxic effect | 28.3 ± 3.57 µM | 2.64 ± 0.03 µM | 3.03 ± 0.12 µM | – | – | – | – | less cytotoxic activities than dicerandrol B | < 10 µM | less cytotoxic activities than dicerandrol B | – | – | – | – |
| CC(=O)OC[C@]12Oc3ccc(-c4ccc5c(c4O)C(=O)C4=C(O)C[C@@H](C)[C@@H](OC(C)=O)[C@@]4(CO)O5)c(O)c3C(=O)C1=C(O)C[C@@H](C)[C@H]2OC(C)=O [Compound 5, dicerandrol B] | – | 30.4 ± 1.1 µM | – | less marked cytotoxic effect | 8.14 ± 1.27 µM | – | < 10 µM | – | – | – | – | – | – | – | 8.65 ± 0.66 µM | – | – | – |
| CC(=O)OC[C@]12Oc3ccc(-c4ccc5c(c4O)C(=O)C4=C(O)C[C@@H](C)[C@@H](OC(C)=O)[C@@]4(COC(C)=O)O5)c(O)c3C(=O)C1=C(O)C[C@@H](C)[C@H]2OC(C)=O [Compound 6, dicerandrol C] | – | > 50 µM | 36.5 ± 3.32 µM | – | 33 ± 2.74 µM | 42.6 ± 2.9 µM | 44.1 ± 2.45 µM | – | – | – | – | – | – | – | – | weak anticancer activities | – | – |
| CC(=O)O[C@@H]1[C@H](C)CC(O)=C2C(=O)c3c(ccc(-c4ccc(O)c5c4O[C@@]4(CO)C(=C(O)C[C@@H](C)[C@H]4OC(C)=O)C5=O)c3O)O[C@@]21CO [Compound 7, deacetylphomoxanthone B] | excellent selective activities against HCT-116 and Calu-3 cell lines over other cancer cell lines | 29.2 ± 1.19 µM | 4.14 ± 0.02 µM | no cytotoxic effect | > 50 µM | 7.12 ± 0.7 µM | 14.4 ± 1.18 µM | – | – | – | – | – | – | – | – | – | – | – |
| CC(=O)OC[C@]12Oc3ccc(-c4ccc(O)c5c4O[C@@]4(CO)C(=C(O)C[C@@H](C)[C@H]4OC(C)=O)C5=O)c(O)c3C(=O)C1=C(O)C[C@@H](C)[C@H]2OC(C)=O [Compound 8, penexanthone A] | – | 42.8 ± 3.58 µM | < 10 µM | less marked cytotoxic effect | 16.1 ± 1.57 µM | < 10 µM | < 10 µM | – | – | – | – | – | – | – | 7.9 ± 0.58 µM | – | 6.44 ± 0.86 µM | 6.92 ± 0.38 µM |
| COc1cccc2c1C(=O)c1c(O)c3c(c(O)c1C2=O)C[C@@](O)(C(=O)CO)C[C@@H]3O[C@H]1C[C@H](N)[C@@H](O)[C@H](C)O1 [epirubicin, reference compound] | – | 0.96 ± 0.01 µM | – | – | 0.48 ± 0.08 µM | – | – | 1.03 ± 0.1 µM | – | 0.48 ± 0.029 µM | – | – | – | – | – | – | – | – |
